In one experiment the test system is BPLER xenografts. The experiment can be described thus: Hormone response of BPLER xenograft tumors in mice. Type of experiment: in vivo. Conditions: estrogen treated animals vs control animals. The text has this: In one respect, the histology of tumors arising from BPLER is very similar, if not identical to human ductal breast carcinoma. There is prominent luminal marker CK18 expression in BPLER cells and tumors. There is also prominent expression of E-cadherin, a marker indicating polarization of cells. Morphology wise, BPLER xenografts form glandular structures similar to those seen in human tumors. BPLER xenografts into mammary fat pads are invasive into adjacent skeletal muscle, and cause a desmoplastic reaction. BPLER xenografts also express progesterone receptors based on immunohistological staining of xenograft tumor samples. In addition, BPLER tumor sizes respond to estrogen treatment, in that xenograft tumors weighed about 70-100% more in estrogen treated animals than in control animals. BPLER tumors spread within the breast tissue of mice, and the multifocal growth is consistent with lymphovascular invasion and spread of tumors.
Subcutaneous tumorigenicity was tested in 6-8 week old immunocompromised athymic nude mice by injecting about 1×10^6 cells resuspended in 100 μl of 50% matrigel (EHSS). Nude mice were irradiated with 400 rad 12 hr prior to injections. Orthotopic tumorigenicity was tested by injecting about 1×10^6 cells into the mammary fat pad of Nod/Skid mice. All mice were sacrificed on day 70. […]

The next experiment deals with BPEC cells. Nature of the experiment: In vitro growth inhibition of BPEC cells by estrogen antagonist. In kind it is cell-based, human. The conditions noted are these: data not shown. The text has this:
(§1) Expression of CK18 and BER-Ep4 both confirm the adenocarcinoma features and exclude a squamous tumor. E-cadherin excludes a mesenchymal tumor. BPLER xenografts express progesterone receptor, which is consistent with the notion that BPLER xenografts are hormone-responsive. This was confirmed by experiments in which estrogen-progesterone treatment of mice increased subject tumor size approximately two-fold compared to untreated mice. […] Similar tumor xenografts from cells cultured in the MEGM media was negative for progesterone receptor expression and the in vitro growth inhibition of the cells with ICI 182,780 was less than 20% (data not shown).

Another experiment concerns BPE cells. Nature of the experiment: In vitro growth inhibition of BPE cells by estrogen antagonist. In kind it is cell-based, human. Conditions: data not shown.
From the text: as §1

In the next experiment the test system is BPLE cells. The experiment can be described thus: In vitro growth inhibition of BPLE cells by estrogen antagonist. In kind it is cell-based, human. The conditions noted are these: data not shown.
From the text: as §1

In experiment [1] the test system is cells cultured in the MEGM media. Nature of the experiment: In vitro growth inhibition of cells cultured in the MEGM media by estrogen antagonist. Conditions: data not shown. Type of experiment: cell-based, human.
From the text: as §1

Bounds are passed on as bounds.

For estrogen, in the experiment with BPLER xenografts, the “xenograft tumor weight increase in treated versus control animals” value was 70-100%.
For `C[C@]12CC[C@@H]3c4ccc(O)cc4C[C@@H](CCCCCCCCC[S+]([O-])CCCC(F)(F)C(F)(F)F)[C@H]3[C@@H]1CC[C@@H]2O` (some centres unmarked) [ICI 182,780], the growth inhibition in the experiment on BPEC cells, in the experiment on BPE cells and in the experiment on BPLE cells was above 80% throughout. Besides, the “in vitro growth inhibition” value in experiment [1] was “less than 20%”.

(Values after patent US8936939B2, “Hormone responsive tissue culture system and uses thereof” (Whitehead Institute for Biomedical Research, priority 2004, dated 2015).)
